Measured values as given in ChEMBL document CHEMBL4507329, “Data for DCP probe BTZO-1” (2021).
Calls of active or inactive are those of the source.

Tests used:
[1] = target: Serine/threonine-protein kinase pim-3 (Homo sapiens) (UniProt Q86V86); conditions: Compound concentration 1000.0 nM
[2] = target: Mitogen-activated protein kinase 8 (Homo sapiens) (UniProt P45983); conditions: Compound concentration 1000.0 nM
[3] = target: 5-hydroxytryptamine receptor 7 (Homo sapiens) (UniProt P34969); conditions: Compound concentration 10.0 uM
[4] = target: 5-hydroxytryptamine receptor 1D (Homo sapiens) (UniProt P28221); conditions: Compound concentration 10.0 uM
[5] = target: Alpha-2B adrenergic receptor (Homo sapiens) (UniProt P18089); conditions: Compound concentration 10.0 uM
[6] = target: T1, Death-associated protein kinase 3 (Homo sapiens, UniProt O43293); assay: Inhibition of DAPK3 at compound concentration of 10.0 uM using the ScanMax (DiscoverX)
[7] = target: G protein-coupled receptor kinase 3 (Homo sapiens, UniProt P35626); assay: Inhibition of GRK3 at compound concentration of 10.0 uM using the ScanMax (DiscoverX)
[8] = target: Alpha-1A adrenergic receptor (Homo sapiens) (UniProt P35348); conditions: Compound concentration 10.0 uM
[9] = target: Muscarinic acetylcholine receptor M4 (Homo sapiens) (UniProt P08173); conditions: Compound concentration 10.0 uM
[10] = target: 5-hydroxytryptamine receptor 5A (Homo sapiens) (UniProt P47898); conditions: Compound concentration 10.0 uM
[11] = target: Phosphatidylinositol 4,5-bisphosphate 3-kinase catalytic subunit gamma isoform (Homo sapiens) (UniProt P48736); conditions: Compound concentration 1000.0 nM
[12] = target: Histamine H1 receptor (Homo sapiens) (UniProt P35367); conditions: Compound concentration 10.0 uM
[13] = organism: Rattus norvegicus; conditions: Compound concentration 10.0 uM
[14] = target: T1, Death-associated protein kinase 3; conditions: Compound concentration 1000.0 nM
Target sequence in this assay (O43293 whole entry, looked up): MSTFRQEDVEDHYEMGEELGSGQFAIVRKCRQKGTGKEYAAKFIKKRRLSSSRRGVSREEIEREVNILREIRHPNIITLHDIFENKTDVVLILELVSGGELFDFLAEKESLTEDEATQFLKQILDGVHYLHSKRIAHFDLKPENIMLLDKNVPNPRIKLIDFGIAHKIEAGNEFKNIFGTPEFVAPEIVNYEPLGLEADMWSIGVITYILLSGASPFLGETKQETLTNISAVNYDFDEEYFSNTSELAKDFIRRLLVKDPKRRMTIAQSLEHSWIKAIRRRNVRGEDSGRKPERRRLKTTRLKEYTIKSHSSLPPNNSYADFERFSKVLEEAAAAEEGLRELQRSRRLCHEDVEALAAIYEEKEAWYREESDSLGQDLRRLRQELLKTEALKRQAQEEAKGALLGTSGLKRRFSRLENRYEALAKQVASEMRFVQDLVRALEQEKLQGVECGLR

[15] = target: GABA-A receptor; anion channel (Rattus norvegicus) (UniProt O09028+P15431+P18506+P18508+P19969+P20236+P23574+P23576+P28471+P28473+P30191+P62813+P63079+P63138+Q91ZM7+Q9ES14); conditions: Compound concentration 10.0 uM
[16] = target: GABA-A receptor; anion channel; assay: GPCRScan assay: inhibition of GABAA/BZP; format: protein-complex assay, Rattus norvegicus; parameters: radioligand conc. used [nm] 0.6 – 4.0, parental cells brain tissue
[17] = target: 5-hydroxytryptamine receptor 6 (Homo sapiens) (UniProt P50406); conditions: Compound concentration 10.0 uM
[18] = target: Cyclin-dependent kinase 8 (Homo sapiens, UniProt P49336); assay: Inhibition of CDK8 at compound concentration of 10.0 uM using the ScanMax (DiscoverX)
[19] = target: Muscarinic acetylcholine receptor M1 (Homo sapiens) (UniProt P11229); conditions: Compound concentration 10.0 uM
[20] = target: Macrophage migration inhibitory factor (Rattus norvegicus, UniProt P30904); assay: Scintillation proximity assay (SPA) measurement of selective [3H]-BTZO-1 binding to rMIF-His
[21] = target: Macrophage migration inhibitory factor (Homo sapiens, UniProt P14174); assay: Scintillation proximity assay (SPA) measurement of selective [3H]-BTZO-1 binding to hMIF-His
[22] = target: T2, Macrophage migration inhibitory factor (Homo sapiens) (UniProt P14174); assay: Apoptosis inhibition
T2 sequence (whole entry): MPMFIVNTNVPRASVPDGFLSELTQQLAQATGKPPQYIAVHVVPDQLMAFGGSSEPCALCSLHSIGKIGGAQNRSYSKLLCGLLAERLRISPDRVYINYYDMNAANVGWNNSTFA

[23] = target: Sigma non-opioid intracellular receptor 1 (Homo sapiens) (UniProt Q99720); conditions: Compound concentration 10.0 uM
[24] = target: Sigma intracellular receptor 2 (Homo sapiens) (UniProt Q5BJF2); conditions: Compound concentration 10.0 uM
Sigma intracellular receptor 2 (Homo sapiens), sequence (Q5BJF2 whole entry): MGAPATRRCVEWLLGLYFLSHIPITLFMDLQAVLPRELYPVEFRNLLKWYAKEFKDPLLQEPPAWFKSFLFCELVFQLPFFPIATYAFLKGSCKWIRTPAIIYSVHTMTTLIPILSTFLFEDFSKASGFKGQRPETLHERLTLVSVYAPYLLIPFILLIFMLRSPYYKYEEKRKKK

Mitogen-activated protein kinase 8 (Homo sapiens), sequence (P45983 whole entry): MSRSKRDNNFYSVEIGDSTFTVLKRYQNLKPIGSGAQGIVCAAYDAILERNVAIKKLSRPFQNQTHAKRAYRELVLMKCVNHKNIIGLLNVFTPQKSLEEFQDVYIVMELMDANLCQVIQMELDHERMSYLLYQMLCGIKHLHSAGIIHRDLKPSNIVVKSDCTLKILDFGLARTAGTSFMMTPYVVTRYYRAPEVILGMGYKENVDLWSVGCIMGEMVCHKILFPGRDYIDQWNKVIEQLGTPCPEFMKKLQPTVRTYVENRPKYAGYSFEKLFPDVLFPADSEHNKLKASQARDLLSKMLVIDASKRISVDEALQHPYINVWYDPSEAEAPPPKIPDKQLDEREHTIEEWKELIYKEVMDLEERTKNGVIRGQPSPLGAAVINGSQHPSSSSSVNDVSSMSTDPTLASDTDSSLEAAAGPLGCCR
Alpha-2B adrenergic receptor (Homo sapiens), sequence (P18089 whole entry): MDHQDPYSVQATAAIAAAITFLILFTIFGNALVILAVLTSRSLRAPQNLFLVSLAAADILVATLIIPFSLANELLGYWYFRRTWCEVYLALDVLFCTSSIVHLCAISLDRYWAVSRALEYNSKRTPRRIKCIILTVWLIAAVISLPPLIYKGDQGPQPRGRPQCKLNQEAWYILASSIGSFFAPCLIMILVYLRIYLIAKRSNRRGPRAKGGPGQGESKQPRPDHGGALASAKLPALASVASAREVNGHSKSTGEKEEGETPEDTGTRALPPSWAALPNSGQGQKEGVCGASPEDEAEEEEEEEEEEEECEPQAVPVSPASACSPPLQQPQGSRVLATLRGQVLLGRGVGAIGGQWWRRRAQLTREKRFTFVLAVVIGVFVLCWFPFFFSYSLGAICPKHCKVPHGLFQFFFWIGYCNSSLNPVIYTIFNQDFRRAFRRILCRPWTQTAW
Phosphatidylinositol 4,5-bisphosphate 3-kinase catalytic subunit gamma isoform (Homo sapiens), sequence (P48736 whole entry, looked up, canonical isoform): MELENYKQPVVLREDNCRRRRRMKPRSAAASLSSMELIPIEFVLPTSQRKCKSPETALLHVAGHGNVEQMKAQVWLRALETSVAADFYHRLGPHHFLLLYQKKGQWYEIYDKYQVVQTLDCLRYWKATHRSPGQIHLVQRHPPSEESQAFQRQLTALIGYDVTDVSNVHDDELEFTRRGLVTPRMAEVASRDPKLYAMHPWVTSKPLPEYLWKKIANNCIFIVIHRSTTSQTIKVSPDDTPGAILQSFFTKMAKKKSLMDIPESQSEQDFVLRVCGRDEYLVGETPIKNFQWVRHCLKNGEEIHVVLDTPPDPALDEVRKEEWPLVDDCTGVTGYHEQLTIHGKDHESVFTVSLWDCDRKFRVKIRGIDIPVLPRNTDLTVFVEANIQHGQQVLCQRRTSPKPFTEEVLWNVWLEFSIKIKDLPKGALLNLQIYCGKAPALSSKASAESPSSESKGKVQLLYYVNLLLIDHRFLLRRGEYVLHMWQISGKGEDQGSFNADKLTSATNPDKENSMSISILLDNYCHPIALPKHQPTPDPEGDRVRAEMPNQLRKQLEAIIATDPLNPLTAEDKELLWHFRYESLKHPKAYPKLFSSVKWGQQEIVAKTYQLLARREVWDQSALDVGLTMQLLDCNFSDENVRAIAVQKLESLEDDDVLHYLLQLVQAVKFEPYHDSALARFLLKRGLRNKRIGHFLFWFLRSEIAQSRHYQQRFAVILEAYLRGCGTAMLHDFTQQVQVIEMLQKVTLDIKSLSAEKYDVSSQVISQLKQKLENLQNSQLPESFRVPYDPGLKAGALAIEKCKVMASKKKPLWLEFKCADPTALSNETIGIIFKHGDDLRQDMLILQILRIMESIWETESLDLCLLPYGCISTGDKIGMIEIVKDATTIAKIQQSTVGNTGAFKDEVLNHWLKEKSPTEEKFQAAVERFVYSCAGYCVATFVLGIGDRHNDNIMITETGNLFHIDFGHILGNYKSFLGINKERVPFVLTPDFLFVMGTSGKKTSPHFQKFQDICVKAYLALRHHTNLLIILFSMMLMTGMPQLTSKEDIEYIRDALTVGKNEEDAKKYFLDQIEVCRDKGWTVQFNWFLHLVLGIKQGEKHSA
G protein-coupled receptor kinase 3, sequence (P35626 whole entry): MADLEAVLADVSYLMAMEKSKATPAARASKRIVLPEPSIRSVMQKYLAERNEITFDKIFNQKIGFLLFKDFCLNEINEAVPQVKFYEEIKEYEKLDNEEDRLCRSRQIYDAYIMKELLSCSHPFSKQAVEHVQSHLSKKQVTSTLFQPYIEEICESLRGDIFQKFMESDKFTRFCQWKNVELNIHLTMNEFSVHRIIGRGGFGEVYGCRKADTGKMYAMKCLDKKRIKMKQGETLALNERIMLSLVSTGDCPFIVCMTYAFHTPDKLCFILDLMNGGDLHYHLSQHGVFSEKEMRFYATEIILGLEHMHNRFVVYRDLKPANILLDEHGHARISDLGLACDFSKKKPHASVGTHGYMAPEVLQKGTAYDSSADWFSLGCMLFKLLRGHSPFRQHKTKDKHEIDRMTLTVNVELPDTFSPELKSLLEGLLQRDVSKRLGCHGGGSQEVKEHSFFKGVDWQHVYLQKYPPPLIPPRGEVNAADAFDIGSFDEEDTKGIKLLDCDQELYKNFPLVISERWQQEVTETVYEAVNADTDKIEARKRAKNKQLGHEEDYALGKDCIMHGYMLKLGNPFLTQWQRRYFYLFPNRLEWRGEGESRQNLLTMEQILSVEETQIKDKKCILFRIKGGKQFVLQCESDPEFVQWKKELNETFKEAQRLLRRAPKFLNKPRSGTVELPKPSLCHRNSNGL
Histamine H1 receptor (Homo sapiens), sequence (P35367 whole entry): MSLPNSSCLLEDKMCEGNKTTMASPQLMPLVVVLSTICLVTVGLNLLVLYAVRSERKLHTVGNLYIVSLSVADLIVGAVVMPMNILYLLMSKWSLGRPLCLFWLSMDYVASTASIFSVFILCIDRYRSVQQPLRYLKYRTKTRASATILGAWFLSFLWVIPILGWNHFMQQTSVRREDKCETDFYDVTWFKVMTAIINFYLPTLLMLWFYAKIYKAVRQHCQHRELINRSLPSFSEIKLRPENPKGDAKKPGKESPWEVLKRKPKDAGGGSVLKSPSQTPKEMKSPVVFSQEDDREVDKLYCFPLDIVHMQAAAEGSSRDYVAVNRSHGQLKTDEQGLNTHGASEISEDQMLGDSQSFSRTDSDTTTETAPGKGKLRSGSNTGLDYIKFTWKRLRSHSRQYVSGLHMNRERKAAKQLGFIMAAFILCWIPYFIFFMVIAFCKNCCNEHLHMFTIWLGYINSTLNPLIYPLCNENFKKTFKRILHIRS
Macrophage migration inhibitory factor (Rattus norvegicus, UniProt P30904), sequence (P30904 2-115 limits assumed): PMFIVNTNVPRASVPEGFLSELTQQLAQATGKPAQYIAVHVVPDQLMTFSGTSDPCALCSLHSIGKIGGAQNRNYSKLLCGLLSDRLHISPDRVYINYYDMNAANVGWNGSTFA
Muscarinic acetylcholine receptor M1 (Homo sapiens), sequence (P11229 whole entry): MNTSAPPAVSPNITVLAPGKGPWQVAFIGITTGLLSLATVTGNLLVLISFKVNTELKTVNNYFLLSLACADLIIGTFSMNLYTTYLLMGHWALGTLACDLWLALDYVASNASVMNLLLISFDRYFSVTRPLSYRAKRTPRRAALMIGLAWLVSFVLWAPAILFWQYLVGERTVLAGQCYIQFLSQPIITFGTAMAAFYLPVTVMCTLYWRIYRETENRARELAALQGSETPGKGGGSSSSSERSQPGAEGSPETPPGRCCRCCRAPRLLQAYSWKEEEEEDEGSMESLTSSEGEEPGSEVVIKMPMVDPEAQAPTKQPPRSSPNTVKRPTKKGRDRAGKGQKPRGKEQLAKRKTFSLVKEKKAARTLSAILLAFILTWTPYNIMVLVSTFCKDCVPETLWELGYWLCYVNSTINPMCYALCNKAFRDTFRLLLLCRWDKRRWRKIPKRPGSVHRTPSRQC
Sigma non-opioid intracellular receptor 1 (Homo sapiens), sequence (Q99720 whole entry): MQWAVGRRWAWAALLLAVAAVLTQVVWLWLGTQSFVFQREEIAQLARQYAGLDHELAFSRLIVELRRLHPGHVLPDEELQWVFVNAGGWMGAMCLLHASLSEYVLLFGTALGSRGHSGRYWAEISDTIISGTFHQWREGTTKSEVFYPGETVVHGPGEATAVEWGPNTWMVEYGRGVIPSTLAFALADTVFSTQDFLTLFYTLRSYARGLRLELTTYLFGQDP

O=C1NC(c2ccccn2)Sc2ccccc21 (stereo not given) [BTZO-4]
> 10 µM (not active): Kd [6] | Kd [7]
inactive: residual activity [1] 100% | residual activity [2] 100% | inhibition [3] -5.1% | inhibition [4] -4.84% | inhibition [5] -5.58% | inhibition [8] -9.97% | inhibition [9] -4.7% | inhibition [10] 1.93% | residual activity [11] 91% | inhibition [12] 49.9% | inhibition [13] 22.6%
active: residual activity [14] 0%

O=c1nc(-c2ccccn2)sc2ccccc12 [BTZO-1]
> 10 µM (not active): Kd [18]
0.934 µM: Ki [16]
active: Kd [20] 0.157 µM | Kd [21] 0.0686 µM | MEC1.5 [22] 16 nM
inactive: residual activity [1] 100% | inhibition [15] 6.23% | residual activity [2] 100% | inhibition [5] 17% | inhibition [17] -1.33% | inhibition [19] -5.27% | inhibition [23] 14% | residual activity [11] 100% | inhibition [13] 9.91% | residual activity [14] 91% | inhibition [24] 12.5%
